Reference: US20250339434A1, “TREATING NEUROLOGIC DISEASES” (priority 2024, published 2025)
Values joined by “and” are separate entries in the source; they are usually repeats but may differ in a detail not shown here. Identical values can stand only once. “Also recorded” adds a separate entry of the source. Marks after values point to notes of the source that are not given here.

What was measured:
[1] = tested on: patients with ASD; assay: SRS scores in patients with ASD tested for FRAAs and sFBPs: effect of leucovorin and concurrent treatments; type: in vivo, human; details: for Association of concurrent treatment with SRS scores: concurrent treatments
Method: (§1) In other tests, many patients with ASD were tested for FRAAs and sFBPs to guide clinical management by identifying the clinical characteristics associated with these biomarkers and to determine whether the biomarkers could predict treatment response.
This is due to two opposing effects. It appears that those with higher binding FRAAs that were not treated with leucovorin had more severe ASD symptoms than those with low binding FRAA titers. In contrast, those with higher FRAA titers who were treated with leucovorin appear to have less severe ASD symptoms than those that were treated and had lower binding FRAA titers. […] Those patients with some of the highest binding FRAA titers can have, on average, a eight-to-sixteen point favorable response on SRS subscales, an amount that can move them into more favorable severity categories.
FIGS. 8A-E are a collection of five charts illustrating results of factoring in a titer of binding autoantibody with the folate treatment when applied to several patients, where the results are shown on a Social Responsiveness Scale.
(§2) The following two tables indicate some treatments and a statistically significant effect of concurrent treatments. β indicates an effectiveness on a certain outcome measure. In Table 2 and 3, a negative value for beta indicates a positive result.

[2] = tested on: patients with ASD; assay: ABC scores in patients with ASD tested for FRAAs and sFBPs: effect of leucovorin and concurrent treatments; type: in vivo, human; details: for Effect on ABC Hyperactivity: concurrent treatments
Method: as §1, §2

[3] = tested on: individuals with ASD; details: cited from earlier work
[4] = tested on: sFBP positive human subjects (patients) with ASD; assay: Social Responsiveness Scale (SRS) scores before and after leucovorin in sFBP positive patients; type: in vivo
Method: Turning now to FIGS. 2A-F, six figures indicate results of treatments when using the process (100) of FIG. 1. In sFBP positive human subjects (patients) started on the standard dose of leucovorin (25 mg twice a day) but in 6 of 12 (50%), the dose of leucovorin was increased to 50 mg twice a day in order to obtain an effective response as judged by the ongoing clinical evaluation. The number of days treated with leucovorin ranged from 92 to 1022 days with an average (SD) number of 584 (333) days of treatment. The graphs of FIGS. 2A-F illustrate the patients' responses using a Social Responsiveness Scale (SRS, which is known in the field, so will not be explained in detail herein). The difference in SRS scores was compared before and after the start of leucovorin treatment. The Total score decreased by 7.4 (1.4) t-score points with leucovorin treatment [F(1,44.6)=28.03, p<0.001, Cohen's d′=1.4]. The Awareness subscale decreased by 8.0 (1.9) t-score points with leucovorin treatment [F(1,45.9)=18.01, p<0.001, Cohen's d′=1.1]. The Cognition subscale decreased by 8.5 (1.8) t-score points with leucovorin treatment [F(1,45.4)=21.64, p<0.001, Cohen's d′=1.2]. The Communication subscale decreased by 8.9 (1.6) t-score points with leucovorin treatment [F(1,44.6)=31.22, p<0.001, Cohen's d′=1.4]. The Motivation subscale decreased by 6.9 (2.1) t-score points with leucovorin treatment [F(1,44.8)=10.91, p<0.01, Cohen's d′=0.9]. The Mannerisms subscale decreased by 4.3 (1.9) t-score points with leucovorin treatment [F(1,45.0)=[…], p=0.03, Cohen's d′=0.6]. To determine an estimate of the timing of the effect of leucovorin treatment, linear regression models were used to determine the change in SRS scores with each day of leucovorin treatment, as shown in FIGS. 2A-F. The Total score decreased by 0.01 (0.002) t-score points per day on leucovorin [F(1,46.6)=25.68, p<0.001]. The Awareness subscale decreased by 0.014 (0.003) t-score points per day on leucovorin [F(1,47.2)=19.74, p<0.001]. The Cognition subscale decreased by 0.013 (0.003) t-score points per day on leucovorin [F(1,47.4)=17.49, p<0.001]. The Communication subscale decreased by 0.013 (0.003) t-score points per day on leucovorin [F(1,46.2)=21.48, p<0.001]. The Motivation subscale decreased by 0.01 (0.004) t-score points per day on leucovorin [F(1,46.1)=8.27, p<0.01]. The Mannerisms subscale decreased by 0.008 (0.003) t-score points per day on leucovorin [F(1,46.2)=6.34, p=0.02].

[5] = tested on: individuals with ASD; assay: Safety and tolerability in individuals with ASD; type: in vivo, human; details: vulnerable population (ASD)
[6] = tested on: sFBP positive human subjects (patients) with ASD; assay: Aberrant Behavior Checklist (ABC) scores before and after leucovorin in sFBP positive patients; type: in vivo
Text: FIGS. 3A-F includes six charts that indicate results of treatments when using the process (100) of FIG. 1 using the Aberrant Behavioral Checklist (ABC, which is known in the field, so will not be explained in detail herein). The patients are the same as the patients in FIGS. 2A-F. Note that the scores/scales are different in FIGS. 3A-F, but the patients are the same and measured over the same time period as FIGS. 2A-F. The difference in ABC scores was compared before and after the start of leucovorin treatment. The Total score decreased by 20.2 (5.9) raw points with leucovorin treatment [F(1,44.8)=11.92, p=0.001, Cohen's d′=0.9]. The Irritability subscale decreased by 5.7 (2.1) raw points with leucovorin treatment [F(1,44.8)=7.56, p<0.01, Cohen's d′=0.6]. […] The Stereotypy subscale decreased by 2.2 (1.0) raw points with leucovorin treatment [F(1,46.4)=4.56, p<0.05, Cohen's d′=0.5]. The Hyperactivity subscale decreased by 6.8 (1.6) raw points with leucovorin treatment [F(1,43.8)=18.34, p<0.001, Cohen's d′=1.1]. […] To get an estimate of the timing of the effect of leucovorin treatment, linear regression models were used to determine the change in ABC scores with each day of leucovorin treatment, as shown in FIGS. 3A-F. The Total score decreased by 0.04 (0.01) raw points per day on leucovorin [F(1,46.3)=12.67, p=0.001]. The Irritability subscale decreased by 0.008 (0.004) raw points per day on leucovorin [F(1,46.5)=5.33, p<0.05]. The Social-Withdrawal subscale decreased by 0.01 (0.003) raw points per day on leucovorin [F(1,44.9)=13.85, p<0.001]. The Stereotypy subscale decreased by 0.004 (0.002) raw points per day on leucovorin [F(1,48.1)=6.17, p<0.05]. The Hyperactivity subscale decreased by 0.01 (0.003) raw points per day on leucovorin [F(1,44.6)=20.56, p<0.001].

[7] = cited from earlier work
[8] = effect of concurrent treatment, negative beta = positive result
[9] = effect size, before vs after leucovorin
[10] = sFBP positive patients, before vs after start of leucovorin

Compound: C[N+](C)(C)CC(O)CC(=O)[O-] (centres unmarked) [Carnitine]
- β, SRS Motivation [1, 8]: −2.3 (1.0)*
- Effect on ABC Hyperactivity [2]: improve ABC Hyperactivity
- Effect on ABC Hyperactivity ([2]; listed as carnitine): better score on ABC Hyperactivity
- Effect on core ASD symptoms in two DBPC studies [3]: improve core ASD symptoms

Compound: C/C1=C2/[N-][C@H]([C@H](CC(N)=O)[C@@]2(C)CCC(=O)NC[C@@H](C)OP(=O)([O-])O[C@H]2[C@@H](O)[C@@H](n3cnc4cc(C)c(C)cc43)O[C@@H]2CO)[C@]2(C)N=C(/C(C)=C3N=C(/C=C4N=C1[C@@H](CCC(N)=O)C\4(C)C)[C@@H](CCC(N)=O)[C@]\3(C)CC(N)=O)[C@@H](CCC(N)=O)[C@]2(C)CC(N)=O.[CH3-].[Co+3] [mB12 SQ, Methyl-cobalamin]
- β, SRS Cognition [1, 8]: −4.3 (1.3)***
- β, SRS Motivation [1, 8]: −3.2 (1.3)*
- β, SRS Total ([1]; effect of concurrent treatment, negative beta = positive result, value (spread)): −2.8 (1.1)**
- Association of concurrent treatment with SRS scores ([1]; patients with ASD): improve the SRS Total score, as well as all subscales except SRS Awareness
- Association of concurrent treatment with SRS scores ([1]; patients with ASD, listed as mB12 Subcutaneous): better SRS scores on a few subscales

Compound: Nc1nc2c(c(=O)[nH]1)N(C=O)C(CNc1ccc(C(=O)N[C@@H](CCC(=O)O)C(=O)O)cc1)CN2 (mixture of isomers) [leucovorin, folinic acid]
- Cohen's d′, SRS Awareness subscale [4, 9]: 1.1
- Cohen's d′, SRS Cognition subscale [4, 9]: 1.2
- Cohen's d′, SRS Communication subscale [4, 9]: 1.4
- Cohen's d′, SRS Mannerisms subscale [4, 9]: 0.6
- Cohen's d′, SRS Motivation subscale [4, 9]: 0.9
- Cohen's d′, SRS Total score [4, 9]: 1.4
- Duration of treatment necessary for the 7-point improvement in the SRS ([4]; individuals positive for sFBPs): two years
- SRS Awareness subscale decrease per day on leucovorin ([4]; linear regression model): 0.014 (0.003) t-score points per day
- SRS Cognition subscale decrease per day on leucovorin ([4]; linear regression model): 0.013 (0.003) t-score points per day
- SRS Communication subscale decrease per day on leucovorin ([4]; linear regression model): 0.013 (0.003) t-score points per day
- SRS Mannerisms subscale decrease per day on leucovorin ([4]; linear regression model): 0.008 (0.003) t-score points per day
- SRS Motivation subscale decrease per day on leucovorin ([4]; linear regression model): 0.01 (0.004) t-score points per day
- SRS Total score decrease per day on leucovorin ([4]; linear regression model): 0.01 (0.002) t-score points per day
- SRS score decrease with leucovorin (summary) ([4]; sFBP positive patients): about 7 points
- SRS Total score decrease with leucovorin treatment ([4]; sFBP positive patients (12), before vs after start of leucovorin 25 or 50 mg twice a day, 92 to 1022 days, value (spread)): 7.4 (1.4) t-score points
- SRS Awareness subscale decrease with leucovorin treatment [4, 10]: 8.0 (1.9) t-score points
- SRS Cognition subscale decrease with leucovorin treatment [4, 10]: 8.5 (1.8) t-score points
- SRS Communication subscale decrease with leucovorin treatment [4, 10]: 8.9 (1.6) t-score points
- SRS Mannerisms subscale decrease with leucovorin treatment [4, 10]: 4.3 (1.9) t-score points
- SRS Motivation subscale decrease with leucovorin treatment [4, 10]: 6.9 (2.1) t-score points
- Safety and tolerability [5]: extremely safe and well-tolerated
- SRS t-scores / ASD symptoms as binding FRAA titers increase, with leucovorin treatment ([1]; dependence on binding FRAA titer): less severe ASD symptoms when treated with leucovorin; also recorded: better (lower scores)
- Favorable response on SRS subscales in patients with some of the highest binding FRAA titers ([1]; on average, highest binding FRAA titers): eight-to-sixteen
- Effect on core ASD symptoms ([1]; patients with ASD): improves core ASD symptoms
- Effect on ABC Irritability [2]: only improved Irritability; also recorded: overall improving irritability
- Cohen's d′, ABC Hyperactivity subscale [6, 9]: 1.1
- Cohen's d′, ABC Irritability subscale [6, 9]: 0.6
- Cohen's d′, ABC Social Withdrawal subscale [6, 9]: 0.9
- Cohen's d′, ABC Stereotypy subscale [6, 9]: 0.5
- Cohen's d′, ABC Total score [6, 9]: 0.9
- Duration of treatment required for the 5.7 improvement in irritability on the ABC ([6]; individuals positive for sFBPs): two years
- ABC Hyperactivity subscale decrease per day on leucovorin ([6]; linear regression model): 0.01 (0.003) raw points per day
- ABC Inappropriate Speech subscale change per day on leucovorin ([6]; linear regression model): did not change significantly
- ABC Irritability subscale decrease per day on leucovorin ([6]; linear regression model): 0.008 (0.004) raw points per day
- ABC Social-Withdrawal subscale decrease per day on leucovorin ([6]; linear regression model): 0.01 (0.003) raw points per day
- ABC Stereotypy subscale decrease per day on leucovorin ([6]; linear regression model): 0.004 (0.002) raw points per day
- ABC Total score decrease per day on leucovorin ([6]; linear regression model): 0.04 (0.01) raw points per day
- ABC Hyperactivity subscale decrease with leucovorin treatment [6, 10]: 6.8 (1.6) raw points
- ABC Inappropriate Speech subscale change with leucovorin treatment [6, 10]: did not change significantly
- ABC Irritability subscale decrease with leucovorin treatment [6, 10]: 5.7 (2.1) raw points and 5.7 raw points
- ABC Social Withdrawal subscale decrease with leucovorin treatment [6, 10]: 5.8 raw points
- ABC Stereotypy subscale decrease with leucovorin treatment [6, 10]: 2.2 (1.0) raw points
- ABC Total score decrease with leucovorin treatment [6, 10]: 20.2 (5.9) raw points
- Absorption following oral administration [7]: rapidly absorbed
